{"source": "patent US20250134870A1", "about": "“PATHWAY MODULATOR, PHARMACEUTICAL COMPOSITION HAVING SAME, USE THEREOF, AND THERAPEUTIC METHOD USING SAME” (Jiangsu Yahong Meditech Co., Ltd., priority 2021, published 2025)", "key": {"[1]": {"tested_on": "2,4-dinitrobenzenesulfonic acid (DNBS)-induced colitis", "assay": "DNBS-induced enteritis/colitis in rats: body weight and stool score (Example 10)", "assay_type": "in vivo, Wistar rats", "conditions": "3, 10 and 30 mg/kg", "procedure": "The 90 animals were randomly grouped on Day-1 (i.e., the day before the experiment) based on animal body weight to ensure that the body weight of each group of animals were similar, so as to reduce bias. Rats were fasted for 40 hours before the experiment and were injected subcutaneously with 5% glucose saline (10 mL/kg, once daily) during fasting. • Experimental grouping:\nOn Day 1 of the experiment, fasting rats were anesthetized by intraperitoneal injection with Zoletil (25 mg/kg Tiletamine and 25 mg/kg Zolazepam) and 5 mg/kg Xylazine.\nIn groups G2-G6, a hose was inserted from the anus to left colic flexure (about 8 cm from the anus) and colitis was induced by DNBS enema (0.5 mL/animal) in rats. The normal control group (G1) received 30% ethanol enema by the same process. The head of the animal after enema was lowered for 15 min, and then the animal was kept in Trendelenburg position until waked to avoid backflow of the enema fluid.\nThe percentage of body weight was calculated according to the following formula: (body weight on Day X-initial weight)/initial weight]×100%.\n(2) Stool score: during the experiment, the stool state of rats was scored daily (0=normal, 1=wet/sticky, 2=loose, 3=liquid)."}, "[2]": {"tested_on": "mesenteric lymph node immune cell subpopulations", "assay": "Flow cytometry of immune cell subpopulations and cytokines in mesenteric lymph nodes of DSS colitis mice (Examples 2, 4)", "assay_type": "in vivo, C57BL/6J mice", "conditions": "30 mg/kg PO QD × 8 days (Test group 1#) vs solvent group", "procedure": "The experimental endpoint was 24 hours after administration on Day 8 for the positive drug control group and the Test group 1 #to Test group 7 #of Example 1; the experimental endpoint of the normal group and the solvent group was the same as that of the positive drug control group and Test group 1 #to Test group 7 #.\nAt the experimental endpoint, mesenteric lymphatic nodes were collected and treated as follows:\n1) The mesenteric lymph nodes were gently grinded and filtered with a […] strainer (BD bioscience, Catalog No. 352350) to obtain a cell suspension, and the cells were counted.\n2) The cells were suspended in a suspension solution (the suspension solution was prepared by the following process: diluting the cell activation mixture with a mixture of 90 v % 1640 medium and 10 v % fetal bovine serum to a concentration of 1×), the cell density was adjusted to 2.5×10^7/mL, and the cells were incubated at 37° C. for 5 hours. 3) The cells were washed with Dulbecco's Phosphate Buffered Saline, and stained with viable/dead stain (stain No. 12 in Table 5) at room temperature for 15 min to distinguish between viable cells and dead cells; the cells were washed with staining buffer (prepared by mixing fetal bovine serum and Dulbecco's Phosphate Buffered Saline at a volume ratio of 2:98), Fc block working solution (prepared by mixing Fc block and staining buffer at a volume ratio of 1:200) was added, and the cells were incubated at room temperature for 15 minutes.\n4) The cells were surface labeled with 100 μL of antibody staining solution for flow cytometry without washing and incubated at 4° C. for 30 minutes.\n5) The cells were washed once with staining buffer, 100 μL of cell fixative solution was added, and the cells were incubated at 4° C. overnight.\n6) 200 μL of cell permeabilization solution was added and incubated at 4° C. for 30 minutes.\n7) After washing with 250 μL of cell permeabilization solution, the cells were suspended with 100 μL of staining buffer and fluorescence was detected with a BD LSRFortessa instrument.\n8) The cell subpopulations analyzed by flow cytometry included CD4+ T cell subpopulation, IL-17A+CD4+ T cell subpopulation, IFN-γ+CD4+ T cell subpopulation, TNF-α+CD4+ T cell subpopulation, CD25+FOXP3+ Treg cell subpopulation; CD8+ T cell subpopulation, IL-17A+CD8+ T cell subpopulation, IFN-γ+CD8+ T cell subpopulation, TNF-α+CD8+ T cell subpopulation; CD69+B220+ B cell subpopulation and NK1.1+CD107a+ NK cell subpopulation."}}, "data": [{"smiles": "NCc1c[nH]c(=S)n1[C@H]1CCc2c(F)cc(F)cc2C1", "note": "[Nepicastat]", "values": [{"measurement": "effects on DNBS-induced colitis in rats", "setting": "[1]", "value": "certain prophylactic and therapeutic effects"}, {"measurement": "proportion of CD4+ T cell subpopulation", "setting": "[2]", "value": "reduce the proportion"}, {"measurement": "proportion of CD25+FOXP3+ Treg cell subpopulation", "setting": "[2]", "value": "increase the proportion"}, {"measurement": "secretion of IFN-γ by CD4+ T cell subpopulation", "setting": "[2]", "value": "reduce the secretion"}, {"measurement": "secretion of IL-17A by CD4+ T cell subpopulation", "setting": "[2]", "value": "reduce the secretion"}, {"measurement": "secretion of TNF-α by CD4+ T cell subpopulation", "setting": "[2]", "value": "reduce the secretion"}]}]}
